Reference: US5051419A, “Prevention or elimination of mycoplasma contamination of animal or plant cell cultures” (Dainippon Pharmaceutical Co., Ltd., priority 1988, dated 1991)
In brackets after ≈: the same amount, converted by molar mass.

Legend:
M. pnumoniae Mac = assay: Anti-mycoplasmal activity (MIC), agar-dilution method; format: cell-based, Mycoplasma pneumoniae; conditions: Mycoplasma; agar dilution; M. pnumoniae Mac; read-out: MIC
Protocol: (§1) The minimum growth inhibitory concentrations (MIC; μg/ml) of the test chemicals were measured by the agar-dilution method.
(§2) (1) Preparation of a mycoplasma suspension for inoculation
(§3) A stored frozen suspension of mycoplasma (0.2 to 0.3 ml) was inoculated in 2 to 3 ml of a preculture medium to be described later. It was serially diluted tenfold until the dilution ratio reached 10,000 times. These diluted solutions were cultivated at 37° C. for 2 to 7 days. A culture having the highest dilution ratio was selected from those cultures in which a color change of the media was noted as a result of mycoplasma growth. It was diluted to 100 times with the preculture medium to prepare a mycoplasma suspension for inoculation.
(§4) The following preculture media were used.
For Mycoplasma pneumoniae and Acholeplasma laidlawii, Chanock liquid medium containing 0.5% glucose (pH 7.8) [Library of Bacteriology 2, "Procedures for Isolation and Identification of Human, Animal and Plant Mycoplasmas", edited by Japanese Society for Bacteriology, page 8 (1982), Saikon Publishing Co.] was used.
(§5) (2) Preparation of agar plates containing the test chemicals
(§6) A 1,000 μg/ml aqueous solution of each test chemical was prepared (a difficultly-soluble chemical was dissolved by adding an equimolar amount of sodium hydroxide; the same applies hereinafter). The solution was used as a base solution and its twofold serial dilutions were prepared. The diluted solutions were pipetted on plastic petri dishes each in an amount of 1 ml. The Chanock agar medium (for Mycoplasma hyorhinis, 0.5% mucin was further added) described at page 9 of the above cited "Procedures for Isolation and Identification of Human, Animal and Plant Mycoplasmas" was heated and kept at 55° C. and put in an amount of 9 ml in each of the petri dishes containing the test chemicals and fully mixed with the test chemicals to prepare agar plates containing the test chemicals.
(§7) The mycoplasma suspension for inoculation prepared by the procedure described in section (1) was inoculated in an amount of about 3 microliters on each of the chemical-containing agar plates by means of a Cathra-replicator (3 mm pin). The plates on which Mycoplasma pneumoniae, Mycoplasma arginini, and Acholeplasma laidlawii and Mycoplasma hyorhinis were inoculated were tightly packed in a plastic bag together with the plasic petri dishes including water-immersed absorbent cotton. Mycoplasma pneumoniae was aerobically cultivated at 37° C. under highly humid conditions for 7 days; and Mycoplasma arginini and Acholeplasma laidlawii, for 2 days. The other mycoplasma species were cultivated anaerobically for 2 days by using a GasPak anaerobic system (BBL). After the cultivation, growth of mycoplasma were observed under an OLYMPUS microscope (20-100 X). The lowest concentration of the test chemical at which no growth of mycoplasma was noted is defined as MIC.

M. orale CH19299 = assay: as above; format: cell-based, Mycoplasma orale; conditions: Metamycoplasma orale; agar dilution; M. orale CH19299; read-out: MIC
Protocol: as §1, §2, §3, §4
(§8) For other mycoplasma species, Chanock liquid medium (pH 6.8) containing 0.2% arginine was used.
as §5, §6, §7

M. salivarium PG20 = assay: as above; format: cell-based, Mycoplasma salivarium; conditions: Metamycoplasma salivarium; agar dilution; M. salivarium PG20; read-out: MIC
Protocol: as §1, §2, §3, §4, §8, §5, §6, §7

A. laidlawii PG-8 = assay: Activity of eliminating artificially contaminated mycoplasma from L-929 cells; format: cell-based, Acholeplasma laidlawii
Protocol: (§9) Animal cells, experimentally contaminated by mycoplasma, were cultivated for 4 days in a medium containing the test chemical and then sub-cultivated in a medium to which the test chemical was not added in order to determine whether the mycoplasma re-grew (re-contamination).
(§10) (1) Preparation of mycoplasma-contaminated cells
(§11) The mycoplasmas described in Table 3 were each pre-cultivated as in Test Example 1, (1). Two milliliters of the cultures were centifuged at 1,500×g for 30 minutes to separate the mycoplasmas. The isolated mycoplasmas were suspended in 2 ml of 10%-FBS-MEM medium (Eagle's minimum essential medium supplemented with 10% fetal bovine serum and 100 U/ml of penicillin G).
(§12) Separately, mouse fibroblast cells L-929 was suspended in 10%-FBS-MEM medium so that their density became 2.5×10^4 /ml. Four milliliters of the suspension was put in a petri dish (diameter 6 cm) for tissue culture including two circular cover glasses (diameter 1.8 cm), and then 1 ml of the mycoplasma suspension described above was added. The mixture was incubated at 37° C. in 5% CO2 humidified atmosphere for 3 days, and then sub-cultivated twice in order to obtain mycoplasma-contaminated cells. Mycoplasma-contamination was confirmed by the highly specific DNA-fluorochromic staining method (the above cited "Procedures for Isolation and identification of Human, Animal and Plant Mycoplasmas", pages 95-97).
(§13) (2) Experiment of eliminating mycoplasma contamination
(§14) Mycoplasma-contaminated L-929 cells were cultivated as described in the preceding section. A 1,000 μg/ml aqueous solution of a test chemical was prepared, and diluted to predetermined concentrations with Eagle's minimum essential medium. The diluted solutions were added to the culture medium. Two petri dishes were used for each concentration of the test chemical, and two circular cover glasses were put in one of them for examination of mycoplasma. No cover glass was put in the other petri dish, and it was used for subcultivation. Cultivation in the test chemical-containing medium was carried out for 4 days, and thereafter, the cultivation was continued for 3 weeks in a drug-free medium. Medium replacement was effected every 3 to 4 days, and subcultivation was carried out once a week. Examination for mycoplasma contamination was performed on the 4th and 7th days, and thereafter every week. The mycoplasmas were detected by the highly specific DNA-fluorochromic staining method.

M. arginini G-230 = assay: as above; format: cell-based, Mycoplasma arginini
Protocol: as §9, §10, §11, §12, §13, §14

mycoplasma = assay: Activity of eliminating artificially contaminated mycoplasma from L-929 cells, Test Example 3 as a whole; format: cell-based; conditions: for minimal effective concentration: Mycoplasma, L929, 96 h, L-929 cells, 4 days of treatment, read-out: effective concentration for eliminating mycoplasma contamination
Protocol: as §9, §10, §11, §12, §13, §14

SMILES: CN(C)c1ccc(O)c2c1C[C@H]1C[C@H]3[C@H](N(C)C)C(O)=C(C(N)=O)C(=O)[C@@]3(O)C(O)=C1C2=O [Compound 3, minocycline]
- MIC (M. pnumoniae Mac): 0.78 µg/mL (≈ 1.7 µM)
- MIC (M. orale CH19299): 0.1 µg/mL (≈ 0.219 µM)
- MIC (M. salivarium PG20): 0.1 µg/mL (≈ 0.219 µM)
- mycoplasma elimination (A. laidlawii PG-8; 12.5 μg/ml, day 0): +
- mycoplasma elimination (A. laidlawii PG-8; 12.5 μg/ml, day 4): -
- mycoplasma elimination (A. laidlawii PG-8; 12.5 μg/ml, day 7): +
- mycoplasma elimination (A. laidlawii PG-8; 12.5 μg/ml, day 14): +
- mycoplasma elimination (A. laidlawii PG-8; 12.5 μg/ml, day 28): +
- mycoplasma elimination (M. arginini G-230; 12.5 μg/ml, day 0): +
- mycoplasma elimination (M. arginini G-230; 12.5 μg/ml, day 4): -
- mycoplasma elimination (M. arginini G-230; 12.5 μg/ml, day 7): -
- mycoplasma elimination (M. arginini G-230; 12.5 μg/ml, day 14): +
- mycoplasma elimination (M. arginini G-230; 12.5 μg/ml, day 28): +
- elimination of mycoplasma and re-growth after removal (mycoplasma; 12.5 μg/ml, 4 days, then drug removed, in words): the cells were mycoplasma-negative after 4 days of cultivation, but when the chemical was removed thereafter, re-growth of mycoplasma was observed

SMILES: CC1CN(c2c(F)c(N)c3c(=O)c(C(=O)O)cn(C4CC4)c3c2F)CCN1 (centres unmarked) [Compound 1]
- MIC (M. pnumoniae Mac): 0.025 µg/mL (≈ 0.0661 µM)
- MIC (M. orale CH19299): 0.2 µg/mL (≈ 0.529 µM)
- MIC (M. salivarium PG20): 0.2 µg/mL (≈ 0.529 µM)
- mycoplasma elimination (A. laidlawii PG-8; 0.2 μg/ml, day 0): +
- mycoplasma elimination (A. laidlawii PG-8; 0.2 μg/ml, day 4): +
- mycoplasma elimination (A. laidlawii PG-8; 0.2 μg/ml, day 7): +
- mycoplasma elimination (A. laidlawii PG-8; 0.2 μg/ml, day 14): +
- mycoplasma elimination (A. laidlawii PG-8; 0.2 μg/ml, day 28): +
- mycoplasma elimination (A. laidlawii PG-8; 0.39 μg/ml, day 0): +
- mycoplasma elimination (A. laidlawii PG-8; 0.39 μg/ml, day 4): -
- mycoplasma elimination (A. laidlawii PG-8; 0.39 μg/ml, day 7): -
- mycoplasma elimination (A. laidlawii PG-8; 0.39 μg/ml, day 14): -
- mycoplasma elimination (A. laidlawii PG-8; 0.39 μg/ml, day 28): -
- mycoplasma elimination (M. arginini G-230; 0.2 μg/ml, day 0): +
- mycoplasma elimination (M. arginini G-230; 0.2 μg/ml, day 4): +
- mycoplasma elimination (M. arginini G-230; 0.2 μg/ml, day 7): +
- mycoplasma elimination (M. arginini G-230; 0.2 μg/ml, day 14): +
- mycoplasma elimination (M. arginini G-230; 0.2 μg/ml, day 28): +
- mycoplasma elimination (M. arginini G-230; 0.39 μg/ml, day 0): +
- mycoplasma elimination (M. arginini G-230; 0.39 μg/ml, day 4): -
- mycoplasma elimination (M. arginini G-230; 0.39 μg/ml, day 7): -
- mycoplasma elimination (M. arginini G-230; 0.39 μg/ml, day 14): -
- mycoplasma elimination (M. arginini G-230; 0.39 μg/ml, day 28): -
- minimal effective concentration (mycoplasma; both species): 0.39 µg/mL
- activity of eliminating mycoplasma contamination (mycoplasma; in words): also showed the activity of eliminating mycoplasma contamination
- effective concentration relative to compound A (mycoplasma; in words): twice that of compound A

SMILES: NCC1CN(c2c(F)c(N)c3c(=O)c(C(=O)O)cn(C4CC4)c3c2F)CCO1 (centres unmarked) [Compound A, 5-amino-7-(2-aminomethylmorpholino)-1-cyclopropyl-6,8-difluoro-1,4-dihydro-4-oxoquinoline-3-carboxylic acid]
- MIC (M. pnumoniae Mac): 0.0125 µg/mL (≈ 0.0317 µM)
- MIC (M. orale CH19299): 0.05 µg/mL (≈ 0.127 µM)
- MIC (M. salivarium PG20): 0.1 µg/mL (≈ 0.254 µM)
- mycoplasma elimination (A. laidlawii PG-8; 0.1 μg/ml, day 0): +
- mycoplasma elimination (A. laidlawii PG-8; 0.1 μg/ml, day 4): -
- mycoplasma elimination (A. laidlawii PG-8; 0.1 μg/ml, day 7): +
- mycoplasma elimination (A. laidlawii PG-8; 0.1 μg/ml, day 14): +
- mycoplasma elimination (A. laidlawii PG-8; 0.1 μg/ml, day 28): +
- mycoplasma elimination (A. laidlawii PG-8; 0.2 μg/ml, day 0): +
- mycoplasma elimination (A. laidlawii PG-8; 0.2 μg/ml, day 4): -
- mycoplasma elimination (A. laidlawii PG-8; 0.2 μg/ml, day 7): -
- mycoplasma elimination (A. laidlawii PG-8; 0.2 μg/ml, day 14): -
- mycoplasma elimination (A. laidlawii PG-8; 0.2 μg/ml, day 28): -
- mycoplasma elimination (M. arginini G-230; 0.1 μg/ml, day 0): +
- mycoplasma elimination (M. arginini G-230; 0.1 μg/ml, day 4): +
- mycoplasma elimination (M. arginini G-230; 0.1 μg/ml, day 7): +
- mycoplasma elimination (M. arginini G-230; 0.1 μg/ml, day 14): +
- mycoplasma elimination (M. arginini G-230; 0.1 μg/ml, day 28): +
- mycoplasma elimination (M. arginini G-230; 0.2 μg/ml, day 0): +
- mycoplasma elimination (M. arginini G-230; 0.2 μg/ml, day 4): -
- mycoplasma elimination (M. arginini G-230; 0.2 μg/ml, day 7): -
- mycoplasma elimination (M. arginini G-230; 0.2 μg/ml, day 14): -
- mycoplasma elimination (M. arginini G-230; 0.2 μg/ml, day 28): -
- elimination of mycoplasma and re-growth after removal (mycoplasma; 0.2 μg/ml, both species, in words): gave a mycoplasma negative in 4 days from the start of cultivation, and when thereafter subcultivation was performed in the absence of the compound A, no re-growth of mycoplasmas were noted
- minimal effective concentration (mycoplasma; both species): 0.2 µg/mL
